For data set [1], the system named is rat liver microsomes. As to the kind of experiment: Metabolic stability in rat liver microsomes (RLM). The note with it: for RLM (metabolized or not): last assay time point 120 min; for RLM, % (half-life as % vs. the related nondeuterated compound): values in square brackets are within 10% difference (assay's accuracy), no deuteration effect; for RLM (metabolized or not) / RLM, % (half-life as % vs. the related nondeuterated compound) / % Remaining of Initial, 0 min / % Remaining of Initial, 5 min / % Remaining of Initial, 10 min / % Remaining of Initial, 20 min / % Remaining of Initial, 30 min / % Remaining of Initial, 60 min / % Remaining of Initial, 120 min: RLM.

The target of data set [2] is T1, hrMAO-A (Homo sapiens, UniProt P21397).
T1 construct: purchased XenoTech Lot #8213001
T1 sequence (P21397 1-527): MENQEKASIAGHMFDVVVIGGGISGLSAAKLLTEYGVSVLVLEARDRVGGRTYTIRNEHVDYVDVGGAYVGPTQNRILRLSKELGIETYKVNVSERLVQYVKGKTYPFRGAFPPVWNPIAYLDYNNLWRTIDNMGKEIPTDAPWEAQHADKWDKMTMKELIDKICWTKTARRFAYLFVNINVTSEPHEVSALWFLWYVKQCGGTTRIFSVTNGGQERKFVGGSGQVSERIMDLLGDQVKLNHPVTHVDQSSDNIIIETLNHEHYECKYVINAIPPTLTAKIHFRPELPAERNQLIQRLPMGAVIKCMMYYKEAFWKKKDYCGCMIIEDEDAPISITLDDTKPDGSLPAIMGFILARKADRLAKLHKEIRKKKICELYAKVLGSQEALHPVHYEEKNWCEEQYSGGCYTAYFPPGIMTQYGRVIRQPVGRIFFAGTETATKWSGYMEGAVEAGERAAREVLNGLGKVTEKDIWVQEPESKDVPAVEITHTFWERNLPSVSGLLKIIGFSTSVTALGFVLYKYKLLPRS
Nature of the data set: Metabolic stability in the presence of hrMAO-A. Format: in vitro ADME. The note with it: for MAO (metabolized or not) / MAO, % (half-life as % vs. the related nondeuterated compound): MAO-A; for MAO (metabolized or not): last assay time point 120 min; for MAO, % (half-life as % vs. the related nondeuterated compound): values in square brackets are within 10% difference (assay's accuracy), no deuteration effect; for % Remaining of Initial, 0 min / % Remaining of Initial, 5 min / % Remaining of Initial, 10 min / % Remaining of Initial, 20 min / % Remaining of Initial, 30 min / % Remaining of Initial, 60 min / % Remaining of Initial, 120 min / Half-life / CLint: hrMAO-A; for CLint: Table 3. The protocol:
The reaction mixture was prepared as described below. The co-dosed TAs were added into the reaction mixture at a final concentration of 1 microM each. The positive control, kynuramine (25 microM), was run simultaneously with the TAs in a separate reaction. The reaction mixture (without TAs or kynuramine) was equilibrated in a shaking water bath at 37° C. for 5 minutes. The reaction was initiated by the addition of the TAs or kynuramine, and the mixture was incubated in a shaking water bath at 37° C. Aliquots (100 microL) of the TA reaction mixture were withdrawn at 0, 5, 10, 20, 30, 60, and 120 minutes. Aliquots (100 microL) of the positive control reaction mixture were withdrawn at 0 and 30 minutes. TA and kynuramine samples were immediately combined with 100 microL of ice-cold 100% MeCN containing 0.1% formic acid and IS to terminate the reaction. The samples were then mixed and centrifuged to precipitate proteins. All TA samples were assayed by LC-HRAMS. The PARR (analyte to IS) at each time point was compared to the PARR at time 0 to determine the percent remaining at each time point. Reaction composition: hrMAO 0.02 mg/mL; Potassium Phosphate, pH 7.4 100 mM; Magnesium Chloride 5 mM; Test Articles (each) 1 microM.

The mark [3] stands for this setting: Table 4, d8 and d10 analogs of DMT.
The mark [4] stands for this setting: Table 5, d8 and d10 analogs of DMT.

For the molecule `CN(C)CCc1c[nH]c2ccc(O)cc12` [reference compound], in data set [1], the “RLM (metabolized or not)” value is on record as “R”. For the same molecule, the “MAO (metabolized or not)” value in data set [2] is reported as “R”.

As for `COc1cccc2[nH]cc(CCN(C)C)c12` [reference compound], the “RLM (metabolized or not)” value in data set [1] was “R”. In addition, in data set [2], the “MAO (metabolized or not)” value was “R”.

As to `[2H]C([2H])(Cc1c[nH]c2ccccc12)NC`, the “RLM, % (half-life as % vs. the related nondeuterated compound)” value (from here on “RLM, %”) in data set [1] was 182%. In addition, in data set [2], the “MAO, % (half-life as % vs. the related nondeuterated compound)” value (shortened to “MAO, %”) is recorded as 578%.

In the case of `[2H]C([2H])([2H])N(C([2H])([2H])[2H])C([2H])([2H])C([2H])([2H])c1c[nH]c2ccccc12` [DMT-d10], in data set [1] (Table 2, four test articles), the “% Remaining of Initial, 0 min” value was 100%; the “% Remaining of Initial, 5 min” value was 72.5%; the “% Remaining of Initial, 10 min” value was found to be 62.2%; the “% Remaining of Initial, 20 min” value was found to be 55.2%. For the same molecule, in data set [1] (Table 2, four test articles), the “% Remaining of Initial, 30 min” value came to 50.9%; the “% Remaining of Initial, 60 min” value stood at 39.6%; the “% Remaining of Initial, 120 min” value worked out at 29.4%. Besides, in data set [1] (setting [3]), the “% Remaining of Initial, 0 min” value worked out at 100%; the “% Remaining of Initial, 5 min” value was 69.3%; the “% Remaining of Initial, 10 min” value is recorded as 56.0%; the “% Remaining of Initial, 20 min” value is 44.9%. For the same molecule, in data set [1] (setting [3]), the “% Remaining of Initial, 30 min” value came out at 39.3%; the “% Remaining of Initial, 60 min” value is given as 30.5%; the “% Remaining of Initial, 120 min” value was found to be 23.6%. Moreover, the metabolic stability entry in data set [1] (rat liver microsomes, compared with DMT-α,α-d2 and DMT-α,α,β,β-d4) was “Further enhancement of metabolic stability”. Also, the “stability in the MAO-A enzymatic assay” value in data set [2] (MAO-A enzymatic assay) is “superiority”. For the same molecule, in data set [2] (Table 3, four test articles), the “% Remaining of Initial, 0 min” value amounted to 100%; the “% Remaining of Initial, 5 min” value is reported as 107%; the “% Remaining of Initial, 10 min” value came out at 112%; the “% Remaining of Initial, 20 min” value was 103%. In data set [2] (Table 3, four test articles), the “% Remaining of Initial, 30 min” value was determined as 101%; the “% Remaining of Initial, 60 min” value was 82.2%; the “% Remaining of Initial, 120 min” value was found to be 68.6%; the Half-life is above 2 h. Besides, in data set [2] (setting [4]), the “% Remaining of Initial, 0 min” value was 100.0%; the “% Remaining of Initial, 5 min” value is reported as 99.0%; the “% Remaining of Initial, 10 min” value was determined as 94.9%; the “% Remaining of Initial, 20 min” value is reported as 95.4%. Moreover, in data set [2] (setting [4]), the “% Remaining of Initial, 30 min” value was 91.4%; the “% Remaining of Initial, 60 min” value came to 81.5%; the “% Remaining of Initial, 120 min” value worked out at 65.8%; the Half-life is above 2 h.

Take `[2H]C([2H])([2H])NC([2H])([2H])C([2H])([2H])c1c[nH]c2cccc(O)c12`: the “RLM, %” value in data set [1] turned out to be 173%. Moreover, in data set [2], the “MAO, %” value stood at 459%.

As for `[2H]C([2H])([2H])C([2H])([2H])NC([2H])([2H])C([2H])([2H])c1c[nH]c2ccccc12`, the “RLM, %” value in data set [1] is given as 159%. For the same molecule, the “MAO, %” value in data set [2] came out at 166%.

Turning to `[2H]C([2H])([2H])Oc1ccc2[nH]cc(CC([2H])([2H])N(C([2H])([2H])[2H])C([2H])([2H])[2H])c2c1`, the “RLM, %” value in data set [1] is on record as 288%. In data set [2], the “MAO, %” value stood at 366%.

On to `[2H]c1[nH]c2c([2H])c([2H])c([2H])c([2H])c2c1C([2H])([2H])C([2H])([2H])N(C([2H])([2H])[2H])C([2H])([2H])[2H]` [DMT-d15], for which the “half-life compared to DMT-d10” value in data set [1] (RLM assay) is reported as “no improvement in half-life”. Moreover, the “RLM, %” value in data set [1] is listed as 325%. Moreover, the “MAO, %” value in data set [2] was 643%.

Take `[2H]C([2H])(c1c[nH]c2cccc(OC)c12)C([2H])([2H])N(C)CC`: the “RLM, %” value in data set [1] turned out to be 161%. In addition, in data set [2], the “MAO, %” value worked out at 291%.

In the case of `COc1ccc2[nH]cc(CCN(C)C)c2c1` [5-MeO-DMT, reference compound], in data set [1], the “RLM (metabolized or not)” value was “R”. The “MAO (metabolized or not)” value in data set [2] is on record as “R”.

For the molecule `[2H]C([2H])(c1c[nH]c2ccccc12)C([2H])([2H])N(C)C` [DMT-d4], in data set [1] (Table 2, four test articles), the “% Remaining of Initial, 0 min” value was 100%; the “% Remaining of Initial, 5 min” value amounted to 70.7%; the “% Remaining of Initial, 10 min” value is 59.6%; the “% Remaining of Initial, 20 min” value is 51.8%. Besides, in data set [1] (Table 2, four test articles), the “% Remaining of Initial, 30 min” value turned out to be 46.3%; the “% Remaining of Initial, 60 min” value is given as 34.2%; the “% Remaining of Initial, 120 min” value came out at 23.7%. For the same molecule, in data set [2] (Table 3, four test articles), the “% Remaining of Initial, 0 min” value is listed as 100%; the “% Remaining of Initial, 5 min” value was found to be 106%; the “% Remaining of Initial, 10 min” value is on record as 111%; the “% Remaining of Initial, 20 min” value came to 102%. In addition, in data set [2] (Table 3, four test articles), the “% Remaining of Initial, 30 min” value came out at 98.2%; the “% Remaining of Initial, 60 min” value was 77.4%; the “% Remaining of Initial, 120 min” value came to 61.4%; the Half-life was above 2 h. The CLint in data set [2] worked out at 0.119 mL/min/mg protein.

With `[2H]C([2H])(c1c[nH]c2ccccc12)C([2H])([2H])N(C)CC`, the “RLM, %” value in data set [1] is given as 131%. Further, the “MAO, %” value in data set [2] worked out at 162%.

As for `[2H]C([2H])(c1c[nH]c2ccc(OC)cc12)C([2H])([2H])N(C)C`, the “RLM, %” value in data set [1] is listed as 184%. The “MAO, %” value in data set [2] was determined as 229%.

In the case of `[2H]C([2H])([2H])NC([2H])([2H])Cc1c[nH]c2cccc(O)c12`, the “RLM, %” value in data set [1] is 163%. Moreover, the “MAO, %” value in data set [2] stood at 466%.

As to `CCN(C)CCc1c[nH]c2ccccc12` [reference compound], the “RLM (metabolized or not)” value in data set [1] is reported as “R”. Besides, the “MAO (metabolized or not)” value in data set [2] is reported as “R”.

`[2H]C([2H])(NC)C([2H])([2H])c1c[nH]c2cccc(O)c12`: the “RLM, %” value in data set [1] worked out at 160%. Moreover, the “MAO, %” value in data set [2] is 396%.

For the molecule `CNCCc1c[nH]c2ccccc12` [reference compound], the “RLM (metabolized or not)” value in data set [1] is recorded as “R”. In addition, the “MAO (metabolized or not)” value in data set [2] is “R”.

As to `[2H]C([2H])(Cc1c[nH]c2ccccc12)N(C)C` [DMT-d2], in data set [1] (Table 2, four test articles), the “% Remaining of Initial, 0 min” value came to 100%; the “% Remaining of Initial, 5 min” value amounted to 67.5%; the “% Remaining of Initial, 10 min” value came out at 56.6%; the “% Remaining of Initial, 20 min” value worked out at 48.8%. In data set [1] (Table 2, four test articles), the “% Remaining of Initial, 30 min” value was 43.3%; the “% Remaining of Initial, 60 min” value stood at 32.0%; the “% Remaining of Initial, 120 min” value was 21.5%. Also, in data set [2] (Table 3, four test articles), the “% Remaining of Initial, 0 min” value worked out at 100%; the “% Remaining of Initial, 5 min” value came out at 106%; the “% Remaining of Initial, 10 min” value is given as 111%; the “% Remaining of Initial, 20 min” value amounted to 101%. In addition, in data set [2] (Table 3, four test articles), the “% Remaining of Initial, 30 min” value is 97.5%; the “% Remaining of Initial, 60 min” value is on record as 76.0%; the “% Remaining of Initial, 120 min” value was found to be 59.1%; the Half-life was above 2 h. The CLint in data set [2] is listed as 0.126 mL/min/mg protein.

As for `[2H]c1[nH]c2c([2H])c([2H])c([2H])c([2H])c2c1CCN(C)C`, the “RLM, %” value in data set [1] was “[106] %”. In addition, the “MAO, %” value in data set [2] is “[103] %”.

The values are drawn from patent US12240813B2, “Deuterated tryptamine derivatives and methods of use” (priority 2020, dated 2025).
